# Experimental data as given in PMC7369637, “Inhibition of Resistance-Refractory P. falciparum Kinase PKG Delivers Prophylactic, Blood Stage, and Transmission-Blocking Antiplasmodial Activity” (Cell Chemical Biology, 2020).
# “Also recorded” adds a separate entry of the source. Like-named read-outs stand apart in the source and are kept apart here.
# Tests used:
# [1] = test system: P. berghei ANKA liver stages; assay: Liver stage susceptibility, luciferase-based assay (PbLuc sporozoites in HepG2); format: cell-based; conditions: Plasmodium berghei
# Experimental: P. berghei ANKA infections were maintained in BALB/c female mice (The Jackson Laboratory) infected via intraperitoneal injection of 2×10^7 blood stage parasites. Infected mice were provided water ad libitum and housed in standard cages in an animal facility room maintained at 22°C and 50-70% relative humidity. Anopheles stephensi mosquitoes were housed in an insectary maintained at 27°C, 80% humidity and a 12:12 light:dark schedule. […] 24 h before infection, 384-well plates (Greiner Bio) were seeded with 1x10^4 HepG2-A16-CD81^EGFP cells in 30 μL of assay medium (DMEM without Phenol Red (Life Technologies, CA), 5% FBS and 5x Pen-Strep Glutamine (Life Technologies, CA)). Luciferase-expressing Pb (PbLuc) sporozoites were freshly obtained by dissecting salivary glands of infected Anopheles stephensi mosquitoes and 5x10^3 sporozoites in 30 μL were added to each well. Plates were centrifuged for 5 min at 330g and incubated for 2 h at 37°C and 5% CO2. Unbound sporozoites were then removed by centrifugation and washing and 30 μL of fresh medium was added. […] Luminescence was measured using an Envision Multilabel Reader (PerkinElmer) to assess parasite growth as a function of compound concentrations.
# [2] = test system: 3D7-A10 parasites (rings, trophozoites, schizonts); assay: ABS stage-specific 8-h exposure assay on highly synchronized parasites; format: cell-based, Plasmodium falciparum; conditions: for IC50: 3D7-A10, 8 h exposure
# Experimental: Synchronicity was achieved using three rounds of sorbitol treatment on early rings, spaced 48 h apart, followed by magnetic purification of segmented schizonts following the final sorbitol treatment. Parasites were highly synchronous to within a 3 h window of development. Assays were repeated on at least three independent occasions (each with technical duplicates) and statistical significance was assessed using Mann Whitney U tests.
# Pf NF54 female gametes = assay: Dual gamete formation assay, female gamete formation; format: cell-based, Plasmodium falciparum; conditions: carry-over and wash-out
# Experimental: Pf NF54 gametocytes were generated as reported elsewhere ([Delves et al., 2016]). Briefly, static cultures of unsynchronized asexual parasites were continuously maintained as above. Parasites were cultured at 1% ring-stage parasitemias and 4% (v/v) hematocrit prior to the induction of gametocytes. To prepare gametocytes, 75% of the media was replaced daily for 14 subsequent days without adding fresh RBCs. During this process the temperature was kept strictly constant, as the rate of exflagellation is highly temperature-dependent. Between days 1 and 4 after culture induction, the asexual parasitemias increased rapidly to a peak. By day 7, as the asexual population waned, early-stage gametocytes became observable. By day 8, gametocyte maturation had progressed, and by day 14 morphologically distinguishable, mature stage V male and female gametocytes were present. […] Control reactions contained DMSO or 20 μM methylene blue (as negative and positive controls, respectively). […] After imaging, the plate was incubated at 18°C for a further 24 h to allow female gametes to maximally express Pfs25, followed by fluorescence microscopy imaging using a 10× objective. Both time lapse images of exflagellation and fluorescence images of female gametes were automatically quantified using custom scripts in ICY BioImage Analysis ([Delves et al., 2016]).
# [3] = biological target: T1, cGMP-dependent protein kinase (PKG) (PF3D7_1436600) (Plasmodium falciparum, UniProt Q8I719); assay: Competitive chemoproteomics in Pf lysates (Kinobeads / bead-immobilized compound); format: binding; conditions: lysates exposed to 40 μM of the same compound vs vehicle
# T1 construct: The beads were incubated at 4°C for 1 h with either 0.1 ml (0.3 mg) Pf blood stage extract; endogenous in cells; host or cells: P. falciparum asexual blood-stage parasites (trophozoite stage), saponin-freed and lysed
# T1 sequence (Q8I719 whole entry): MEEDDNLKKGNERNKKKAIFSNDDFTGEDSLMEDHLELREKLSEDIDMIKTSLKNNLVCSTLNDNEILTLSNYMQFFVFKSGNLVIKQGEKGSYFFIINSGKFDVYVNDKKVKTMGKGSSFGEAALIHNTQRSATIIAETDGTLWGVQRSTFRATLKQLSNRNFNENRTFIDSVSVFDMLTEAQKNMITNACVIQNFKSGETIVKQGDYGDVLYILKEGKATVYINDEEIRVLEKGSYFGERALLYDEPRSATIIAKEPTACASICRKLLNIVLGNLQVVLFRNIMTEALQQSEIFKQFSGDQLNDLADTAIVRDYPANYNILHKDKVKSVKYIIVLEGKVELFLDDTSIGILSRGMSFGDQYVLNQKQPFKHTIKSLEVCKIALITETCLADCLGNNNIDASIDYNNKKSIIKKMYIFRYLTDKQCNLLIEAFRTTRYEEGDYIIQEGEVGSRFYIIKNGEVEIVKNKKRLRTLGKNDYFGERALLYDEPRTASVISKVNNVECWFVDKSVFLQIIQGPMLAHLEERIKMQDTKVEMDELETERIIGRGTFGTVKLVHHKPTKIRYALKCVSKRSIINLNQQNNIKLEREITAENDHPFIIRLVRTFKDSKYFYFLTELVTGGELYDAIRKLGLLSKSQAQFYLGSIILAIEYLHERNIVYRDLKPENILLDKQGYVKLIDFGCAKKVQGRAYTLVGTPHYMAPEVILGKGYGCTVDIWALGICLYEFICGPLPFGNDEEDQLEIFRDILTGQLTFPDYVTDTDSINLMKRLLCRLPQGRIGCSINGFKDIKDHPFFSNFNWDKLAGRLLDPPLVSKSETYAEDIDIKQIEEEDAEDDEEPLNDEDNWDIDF
# Experimental: Parasite cultures at the trophozoite stage were harvested, washed twice in RPMI 1640 medium (Gibco), and lysed by the addition of saponin to a final concentration of 0.1% for 5 min at room temperature. Free parasites were sedimented by centrifugation (3500 rpm for 10 min), washed three times with phosphate-buffered saline, and stored at −80°C. Parasites were resuspended in cell lysis buffer (50 mM tris-HCl (pH 7.5), 5% glycerol, 1.5 mM MgCl2, 1.5 mM NaCl, 1 mM Na3PO4, 25 mM sodium fluoride, 0.8% NP-40, EDTA-free protease inhibitor cocktail tablets (Roche Diagnostics), and 1 mM DTT) and disrupted by sonication (Sonics Vibra-Cell) using two 30-s cycles on ice at half-amplitude. […]
# Kinobeads were prepared by immobilizing Bis-(III) indolyl-maleimide, purvalanol B, staurosporine and CZC8004, and the analogs of PD173955, sunitinib and vandetanib on NHS-activated Sepharose 4 beads (Amersham) ([Bantscheff et al., 2007]). […] 10 samples were measured in parallel (TMT 10-plex ([Werner et al., 2014])) to generate values for the affinity of the beads to the bound proteins (“depletion” values, 4 samples) and to generate IC50 values (6 samples) in a single experiment. Apparent dissociation constants were determined after accounting for protein depletion by the beads ([Bantscheff et al., 2011]). […]
structure (smiles),measurement,setting,value
CC(C)(CN)c1nc(-c2ccc(Cl)c(O)c2)c(-c2ccncc2)[nH]1 [MMV030084],IC50,"[1]; HepG2, compound added 2 h after infection, read-out: IC50, liver stage, post-invasion exposure",> 10000 nM
same,IC50,"[1]; luciferase-expressing Pb parasites, host HepG2 liver cells, pre-invasion exposure, read-out: IC50, liver stage",199 nM
same,IC50,"[2]; first shift of biphasic curve, read-out: Mean IC50, schizont biphasic shift 1",0.0956 µM
same,IC50,"[2]; second shift of biphasic curve, read-out: Mean IC50, schizont activity shift 2",3.93 µM
same,IC50,"[2]; read-out: Mean IC50, late ring stage activity",5.87 µM
same,Survival at plateau phase of biphasic schizont curve,"[2]; 3D7-A10 schizonts, 8 h exposure",~ 58%
same,IC50,"[2]; Plasmodium falciparum, 3D7, 8 h, early and late rings averaged, read-out: Average IC50, rings",5.56 µM
same,IC50,"[2]; Plasmodium falciparum, 3D7, 8 h, early and late trophozoites averaged, read-out: Average IC50, trophozoites",3.25 µM
same,IC50,"[2]; Plasmodium falciparum, 3D7, 8 h, first shift of biphasic curve, read-out: Mean IC50, schizont biphasic shift 1",0.096 µM
same,IC50,"[2]; Plasmodium falciparum, 3D7, 8 h, second shift of biphasic curve, read-out: Mean IC50, schizont activity shift 2",3.93 µM
same,IC50,"[2]; Plasmodium falciparum, 3D7, 8 h, read-out: Mean IC50, early ring stage activity",5.25 µM
same,IC50,"[2]; Plasmodium falciparum, 3D7, 8 h, read-out: Mean IC50, early trophozoite activity",3.21 µM
same,IC50,"[2]; Plasmodium falciparum, 3D7, 8 h, read-out: Mean IC50, late ring stage activity",5.87 µM
same,IC50,"[2]; Plasmodium falciparum, 3D7, 8 h, read-out: Mean IC50, late trophozoite activity",3.28 µM
same,Activity against female gametes,Pf NF54 female gametes,ambiguous results; also recorded: little to no activity
same,PKG pull-down by bead-bound compound,[3],pulled down
